# “Also recorded” adds a separate entry of the source.
# Assays:
# [1] = tested on: NSPC migration toward cathode; assay: EF-directed NSPC migration in LGE explant cultures; assay type: cell-based, rat; conditions: DAPV 10 μM, EF 30 mV/mm for 10 hours
# Experimental: Explants (100-300 μm in diameter) were selected for observation. For the electric field (EF) application, agar-salt bridges were used to connect silver/silver chloride electrodes in beakers containing Steinberg's solution to pools of excess culture medium at either side of the chamber. The electric field strengths were measured directly at the beginning and end of the observation period. For time-lapse observation, HEPES acid (25 mM) was added to the culture medium to adjust pH to 7.4. Time-lapse imaging was performed with an inverted microscope (Zeiss Axiovert 200M, obtained from Zeiss, Oberkochen, Germany) that was used to record digitally the migration of NSPCs for 3 hours. […] At the end of exposure period explants were fixed in 4% paraformaldehyde and then digitally photographed for quantification. […] To quantify velocity and directedness of cell motion, the cell centroid was calculated with Image J software (obtained from NIH). […] The directedness of motion was expressed as a function of cosine. It was calculated by defining movements in the X-plane towards the cathode (or mock-cathode) as negative. […] For quantification of long-term EF-exposed cells, the symmetry was expressed as a function of the distribution of cells around the explant. Total cell numbers in the cathode and anode facing quadrants were calculated. […]
# [2] = biological target: T1, NMDAR association with TIAM1 (Rattus norvegicus, UniProt Q00960); assay: Coimmunoprecipitation of NMDAR (NR2B) with TIAM1 in EF-exposed LGE explants; assay type: cell-based; conditions: DAPV 10 μM, EF 250 mV/mm for 60 minutes
# T1 construct: from tissue; host or cells: rat (Wistar) E17-18 lateral ganglionic eminence explant cultures
# T1 sequence (Q00960 27-1482, other chains not shown): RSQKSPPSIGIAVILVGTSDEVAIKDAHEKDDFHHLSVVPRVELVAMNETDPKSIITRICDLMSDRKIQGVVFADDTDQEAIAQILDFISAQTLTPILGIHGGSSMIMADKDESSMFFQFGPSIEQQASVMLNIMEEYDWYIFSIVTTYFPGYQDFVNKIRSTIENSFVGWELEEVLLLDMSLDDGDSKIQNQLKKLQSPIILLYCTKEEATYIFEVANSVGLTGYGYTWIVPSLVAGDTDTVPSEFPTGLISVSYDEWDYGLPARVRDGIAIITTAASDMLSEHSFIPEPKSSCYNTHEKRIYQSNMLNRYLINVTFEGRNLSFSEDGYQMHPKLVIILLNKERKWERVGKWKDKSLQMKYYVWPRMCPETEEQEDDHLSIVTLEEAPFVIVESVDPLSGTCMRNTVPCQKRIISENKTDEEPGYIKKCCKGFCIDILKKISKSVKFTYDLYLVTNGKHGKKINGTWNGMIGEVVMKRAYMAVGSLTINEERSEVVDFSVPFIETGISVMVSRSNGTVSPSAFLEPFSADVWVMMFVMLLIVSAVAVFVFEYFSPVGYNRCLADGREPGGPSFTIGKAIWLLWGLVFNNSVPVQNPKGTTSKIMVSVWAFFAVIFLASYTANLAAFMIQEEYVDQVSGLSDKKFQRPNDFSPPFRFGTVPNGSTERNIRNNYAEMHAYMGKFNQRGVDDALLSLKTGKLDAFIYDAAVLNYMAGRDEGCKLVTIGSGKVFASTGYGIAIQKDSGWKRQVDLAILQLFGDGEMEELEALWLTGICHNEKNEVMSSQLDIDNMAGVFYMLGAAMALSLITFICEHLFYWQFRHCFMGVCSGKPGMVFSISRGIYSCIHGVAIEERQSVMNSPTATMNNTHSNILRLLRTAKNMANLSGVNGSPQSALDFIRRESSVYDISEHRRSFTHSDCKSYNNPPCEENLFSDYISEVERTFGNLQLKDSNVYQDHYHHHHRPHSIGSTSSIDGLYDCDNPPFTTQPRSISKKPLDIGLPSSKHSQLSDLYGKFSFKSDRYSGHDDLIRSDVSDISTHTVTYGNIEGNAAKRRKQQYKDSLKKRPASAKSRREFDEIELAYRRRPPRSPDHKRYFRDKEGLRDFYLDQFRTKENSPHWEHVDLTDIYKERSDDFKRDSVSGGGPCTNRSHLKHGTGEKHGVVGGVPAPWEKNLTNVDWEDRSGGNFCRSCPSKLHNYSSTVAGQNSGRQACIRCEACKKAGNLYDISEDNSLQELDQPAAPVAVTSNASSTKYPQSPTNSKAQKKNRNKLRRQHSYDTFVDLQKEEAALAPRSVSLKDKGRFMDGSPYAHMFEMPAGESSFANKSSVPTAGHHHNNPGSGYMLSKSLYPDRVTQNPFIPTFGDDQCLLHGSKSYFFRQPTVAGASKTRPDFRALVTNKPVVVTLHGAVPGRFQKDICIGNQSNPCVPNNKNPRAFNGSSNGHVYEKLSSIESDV
# Description: The methods for immunocytochemistry and coimmunoprecipitation have been described in detail in Ning et al., “Dual neuroprotective signaling mediated by downregulating two distinct phosphatase activities of PTEN,” J. Neurosci., 24, 4052-60, (2004); and Liu et al., “Ischemic insults direct glutamate receptor subunit 2-lacking AMPA receptors to synaptic sites,” J. Neurosci., 26, 5309-19 (2006), both of which are incorporated herein by reference. For immunocytochemical labeling, the guinea-pig anti-DCX (obtained from Santa Cruz Biotechnology, Santa Cruz, Calif.), mouse anti-nestin (obtained from Chemicon, Billerica, Mass.), rabbit anti-NR1 (obtained from Chemicon), and rabbit anti-NR2B (obtained from Novas Biologicals, Littleton, Colo.) primary antibodies were used. Secondary antibodies consisted of Alex Fluor 488 and 596 were purchased from Molecular Probes, Eugene, Oreg. Imaging was performed with a Zeiss LSM 510 META confocal microscope and image processing was performed with Image J software (obtained from NIH). For coimmunoprecipitation assay, rabbit anti-TIAM1 (obtained from Santa Cruz), rabbit anti-NR2B (obtained from Novus Biologicals), rabbit anti-phosphorylated PAK1 at serine 423 (obtained from Santa Cruz) and mouse anti-actin (obtained from Chemicon) were used.
# Rearrangement of the actin cytoskeletal network is an essential process in neural migration. […]
# [3] = tested on: association of p-PAK1 with TIAM1; assay: Coimmunoprecipitation of p-PAK1 with TIAM1 in EF-exposed LGE explants; assay type: cell-based, rat; conditions: DAPV
# Description: (§1) The methods for immunocytochemistry and coimmunoprecipitation have been described in detail in Ning et al., “Dual neuroprotective signaling mediated by downregulating two distinct phosphatase activities of PTEN,” J. Neurosci., 24, 4052-60, (2004); and Liu et al., “Ischemic insults direct glutamate receptor subunit 2-lacking AMPA receptors to synaptic sites,” J. Neurosci., 26, 5309-19 (2006), both of which are incorporated herein by reference. For immunocytochemical labeling, the guinea-pig anti-DCX (obtained from Santa Cruz Biotechnology, Santa Cruz, Calif.), mouse anti-nestin (obtained from Chemicon, Billerica, Mass.), rabbit anti-NR1 (obtained from Chemicon), and rabbit anti-NR2B (obtained from Novas Biologicals, Littleton, Colo.) primary antibodies were used. Secondary antibodies consisted of Alex Fluor 488 and 596 were purchased from Molecular Probes, Eugene, Oreg. Imaging was performed with a Zeiss LSM 510 META confocal microscope and image processing was performed with Image J software (obtained from NIH). For coimmunoprecipitation assay, rabbit anti-TIAM1 (obtained from Santa Cruz), rabbit anti-NR2B (obtained from Novus Biologicals), rabbit anti-phosphorylated PAK1 at serine 423 (obtained from Santa Cruz) and mouse anti-actin (obtained from Chemicon) were used. […]
# [4] = tested on: PAK1 phosphorylation; assay: Immunoblot of PAK1 phosphorylation (serine 423) in EF-exposed explants; assay type: cell-based, rat; conditions: DAPV; EF 250 mV/mm for 60 min
# Description: as §1
# [5] = tested on: association between actin and TIAM1; assay: Coimmunoprecipitation of actin with TIAM1 in EF-exposed explants; assay type: cell-based, rat; conditions: DAPV
# Description: as §1
structure (smiles),measurement,setting,value
N[C@H](CCCP(=O)(O)O)C(=O)O [DAPV],NSPC migration toward cathode on the cathode side of explants,[1],significantly inhibited; also recorded: significantly attenuated
same,EF-induced increase of NMDAR (NR2B) association with TIAM1,[2],inhibited; also recorded: suppressed
same,EF-enhanced association of p-PAK1 with TIAM1,[3],abolished
same,EF-mediated increase of PAK1 phosphorylation,[4],significantly attenuated; also recorded: blocked
same,EF-induced increase of association between actin and TIAM1,[5],suppressed; also recorded: inhibited

# Reference: US20090259275A1, “METHODS OF TREATING BRAIN DAMAGES” (priority 2008, published 2009)
